What all share (format): cell-based
One assay addresses T1, serotonin transporter (Homo sapiens, UniProt P31645).
T1 construct: expressed in transfected cells; host or cells: HEK-293
Briefly: Serotonin reuptake inhibition in transporter-transfected HEK-293 cells ([3H]-5-HT). The conditions noted are these: for Triple reuptake inhibition (Ratio %) SERT: compound 1 μM, [3H]-5-HT, relative to control without compound (100%), lower = more inhibition.

For assay [1], the target named is T2, norepinephrine transporter (Homo sapiens, UniProt P23975).
T2 construct: expressed in transfected cells; host or cells: HEK-293
T2 sequence (P23975 whole entry, species assumed): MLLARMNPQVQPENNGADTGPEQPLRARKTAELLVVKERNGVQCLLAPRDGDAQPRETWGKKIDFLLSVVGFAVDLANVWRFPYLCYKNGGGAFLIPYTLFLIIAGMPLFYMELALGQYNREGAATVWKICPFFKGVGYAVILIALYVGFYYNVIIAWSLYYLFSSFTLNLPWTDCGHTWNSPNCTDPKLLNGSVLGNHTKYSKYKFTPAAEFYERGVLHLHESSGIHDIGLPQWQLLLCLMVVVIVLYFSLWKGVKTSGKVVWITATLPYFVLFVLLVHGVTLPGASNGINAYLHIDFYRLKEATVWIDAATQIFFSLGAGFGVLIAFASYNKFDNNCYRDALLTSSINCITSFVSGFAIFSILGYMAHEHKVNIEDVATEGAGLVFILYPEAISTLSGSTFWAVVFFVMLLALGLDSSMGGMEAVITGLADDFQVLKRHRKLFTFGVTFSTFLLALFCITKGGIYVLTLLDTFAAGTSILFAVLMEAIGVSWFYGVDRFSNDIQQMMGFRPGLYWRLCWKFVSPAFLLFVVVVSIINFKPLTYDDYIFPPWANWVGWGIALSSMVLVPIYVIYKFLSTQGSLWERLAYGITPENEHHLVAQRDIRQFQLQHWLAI
Put plainly: Norepinephrine reuptake inhibition in transporter-transfected HEK-293 cells ([3H]-NE). The conditions noted are these: for Triple reuptake inhibition (Ratio %) NET: compound 1 μM, [3H]-NE, relative to control without compound (100%), lower = more inhibition.

The target in the next assay is T3, dopamine transporter (Homo sapiens, UniProt Q01959).
T3 construct: expressed in transfected cells; host or cells: HEK-293
T3 sequence (Q01959 whole entry): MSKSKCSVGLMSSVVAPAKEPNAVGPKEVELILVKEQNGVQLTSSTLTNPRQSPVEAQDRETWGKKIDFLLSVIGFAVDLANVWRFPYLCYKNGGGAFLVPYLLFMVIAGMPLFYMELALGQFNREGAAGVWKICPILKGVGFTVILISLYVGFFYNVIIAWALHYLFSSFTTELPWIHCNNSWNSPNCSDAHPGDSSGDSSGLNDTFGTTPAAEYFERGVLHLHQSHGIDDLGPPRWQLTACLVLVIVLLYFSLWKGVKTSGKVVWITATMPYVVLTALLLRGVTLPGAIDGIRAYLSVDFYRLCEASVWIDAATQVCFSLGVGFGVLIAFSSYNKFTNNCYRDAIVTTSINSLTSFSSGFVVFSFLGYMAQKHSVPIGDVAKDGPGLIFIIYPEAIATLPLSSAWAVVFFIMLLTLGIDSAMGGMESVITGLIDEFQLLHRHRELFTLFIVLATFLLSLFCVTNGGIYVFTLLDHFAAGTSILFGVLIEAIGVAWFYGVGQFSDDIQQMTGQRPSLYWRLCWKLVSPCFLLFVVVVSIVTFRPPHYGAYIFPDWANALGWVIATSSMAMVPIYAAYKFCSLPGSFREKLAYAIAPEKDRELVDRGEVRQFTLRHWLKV
Put plainly: Dopamine reuptake inhibition in transporter-transfected HEK-293 cells ([3H]-DA). The conditions noted are these: for Triple reuptake inhibition (Ratio %) DAT: compound 1 μM, 20-30 nM [3H]-DA, relative to control without compound (100%), lower = more inhibition. Put shortly: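 HEK-293 cells transfected with human DAT cDNA; compound preincubated 15 min at 37 °C in uptake buffer, then buffer containing 20-30 nM [3H]-DA added for 5 min at 37 °C. After ice-cold washes and SDS lysis, radioactivity expressed as % of untreated control; IC50 from six concentrations (1 nM–1 μM).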

Setting [2] is: concentration at which Ratio % is 50%, 6 concentrations 1 nM to 1 μM, read-out: Triple reuptake inhibition (IC50, μM) SERT.
Where [3] appears, read: concentration at which Ratio % is 50%, 6 concentrations 1 nM to 1 μM, read-out: Triple reuptake inhibition (IC50, μM) NET.
Where [4] appears, read: concentration at which Ratio % is 50%, 6 concentrations 1 nM to 1 μM, read-out: Triple reuptake inhibition (IC50, μM) DAT.

Like-named read-outs stand apart in the source and are kept apart here.

T1 sequence (P31645 whole entry): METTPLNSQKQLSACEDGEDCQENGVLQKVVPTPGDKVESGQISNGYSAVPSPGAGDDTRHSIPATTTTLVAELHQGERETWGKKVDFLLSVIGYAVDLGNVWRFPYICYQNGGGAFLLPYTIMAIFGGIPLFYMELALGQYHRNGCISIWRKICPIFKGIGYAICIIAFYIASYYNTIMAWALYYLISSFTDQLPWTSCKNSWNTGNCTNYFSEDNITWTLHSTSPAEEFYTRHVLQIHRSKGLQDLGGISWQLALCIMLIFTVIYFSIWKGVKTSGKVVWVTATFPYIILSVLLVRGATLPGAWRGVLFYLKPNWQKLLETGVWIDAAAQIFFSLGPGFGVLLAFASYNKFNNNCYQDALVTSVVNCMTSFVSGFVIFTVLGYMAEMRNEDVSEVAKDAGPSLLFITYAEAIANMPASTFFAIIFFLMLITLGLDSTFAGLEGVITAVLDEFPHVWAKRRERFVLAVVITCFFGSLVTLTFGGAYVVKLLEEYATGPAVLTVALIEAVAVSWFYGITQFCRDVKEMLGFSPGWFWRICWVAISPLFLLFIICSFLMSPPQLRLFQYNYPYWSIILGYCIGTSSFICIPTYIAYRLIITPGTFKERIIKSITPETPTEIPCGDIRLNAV

For the compound `O=C(N[C@@H]1CC[C@@H](c2ccc(Cl)c(Cl)c2)c2ccccc21)c1cc2ccccc2[nH]1` [Example 62, N-((1R,4S)-4-(3,4-dichlorophenyl)-1,2,3,4-tetrahydronaphthalen-1-yl)-1H-indol-2-carboxamide], the “Triple reuptake inhibition (Ratio %) SERT” value on serotonin transporter came to 94.51%. Further, the “Triple reuptake inhibition (Ratio %) NET” value in assay [1] worked out at 144.33%. Moreover, the “Triple reuptake inhibition (Ratio %) DAT” value at dopamine transporter is listed as 79.43%.
In the case of `O=C(NCCN1CCC(Cc2ccccc2)CC1)c1cc2cc(O)c(O)cc2[nH]1` [Example 63, N-(2-(4-benzylpiperidin-1-yl)ethyl)-5,6-dihydroxy-1H-indol-2-carboxamide], the “Triple reuptake inhibition (Ratio %) SERT” value at serotonin transporter was 38.25%. Besides, the IC50 (commonly the concentration needed to halve the response being measured) at serotonin transporter (setting [2]) turned out to be 0.369 µM; in assay [1] (setting [3]), 0.092 µM; on dopamine transporter (setting [4]), 0.087 µM. Also, the “Triple reuptake inhibition (Ratio %) NET” value in assay [1] is 48.43%. In addition, the “Triple reuptake inhibition (Ratio %) DAT” value on dopamine transporter is 13.34%.
For the compound `O=C(NCCN1CCC(Cc2ccccc2)CC1)c1nc2cc(O)ccc2[nH]1` [Example 64, N-(2-(4-benzylpiperidin-1-yl)ethyl)-5-hydroxy-1H-benzo[d]imidazol-2-carboxamide], the “Triple reuptake inhibition (Ratio %) SERT” value on serotonin transporter is listed as 47.72%. In addition, the values for the IC50 (on serotonin transporter (setting [2]); in assay [1] (setting [3]); on dopamine transporter (setting [4])) were 0.237 µM, 0.543 µM and 0.362 µM, respectively. Also, the “Triple reuptake inhibition (Ratio %) NET” value in assay [1] is on record as 57.21%. The “Triple reuptake inhibition (Ratio %) DAT” value at dopamine transporter was found to be 22.84%.
`O=C(NCCN1CCC(Cc2ccc(Cl)c(Cl)c2)CC1)c1cc2cc(O)c(O)cc2[nH]1` [Example 65, N-(2-(4-(3,4-dichlorobenzyl)piperidin-1-yl)ethyl)-5,6-dihydroxy-1H-indol-2-carboxamide]: the “Triple reuptake inhibition (Ratio %) SERT” value at serotonin transporter was found to be 10.79%. In addition, the results for the 50% inhibitory concentration (IC50) (on serotonin transporter (setting [2]); in assay [1] (setting [3]); at dopamine transporter (setting [4])) were 0.044 µM, 5.73 µM and 0.049 µM, respectively. In addition, the “Triple reuptake inhibition (Ratio %) NET” value in assay [1] was 73.83%. The “Triple reuptake inhibition (Ratio %) DAT” value on dopamine transporter came to 7.57%.
For `CCCCOc1ccc2[nH]c(C(=O)NCCN3CCC(Cc4ccccc4)CC3)cc2c1` [Example 67, N-(2-(4-benzylpiperidin-1-yl)ethyl)-5-butoxy-1H-indol-2-carboxamide], the “Triple reuptake inhibition (Ratio %) SERT” value at serotonin transporter worked out at 53.46%. Further, the “Triple reuptake inhibition (Ratio %) NET” value in assay [1] is listed as 92.60%. In addition, the “Triple reuptake inhibition (Ratio %) DAT” value at dopamine transporter turned out to be 56.05%.
For `CN(CCNC(=O)c1cc2ccccc2[nH]1)Cc1ccc2ccccc2c1` [Example 68, N-(2-(methyl(napthalen-2-ylmethyl)amino)ethyl)-1H-indol-2-carboxamide], in that order: 87.07%, 100.99% and 90.63%.
For `O=C(NCCN1CCC(Cc2ccccc2)CC1)C1CC1` [Example 69, N-(2-(4-benzylpiperidin-1-yl)ethyl)cyclopropanecarboxamide], in that order: 113.80%, 86.02% and 92.83%.
Consider `CC1(C(=O)NCCN2CCC(Cc3ccccc3)CC2)CC1` [Example 70, N-(2-(4-benzylpiperidine-1-yl)ethyl)-1-methylcyclopropanecarboxamide], for which the “Triple reuptake inhibition (Ratio %) SERT” value on serotonin transporter came out at 102.65%. For the same compound, the “Triple reuptake inhibition (Ratio %) NET” value in assay [1] is given as 116.85%. Besides, the “Triple reuptake inhibition (Ratio %) DAT” value on dopamine transporter is reported as 107.49%.
For `O=C(NCCN1CCC(Cc2ccccc2)CC1)c1ccccn1` [Example 71, N-(2-(4-benzylpiperidin-1-yl)ethyl)picolinamide], in that order: 67.98%, 105.84% and 117.41%.
For `CCCCOc1ccc(C(=O)NCCN2CCC(c3c[nH]c4ccccc34)CC2)cc1` [Example 72, N-(2-(4-(1H-indol-3-yl)piperidin-1-yl)ethyl)-4-butoxybenzamide], in that order: 17.44%, 97.62% and 58.16%.
For `O=C(NCCN1CCC(Cc2ccccc2)CC1)c1c[nH]c2ccccc12` [Example 73, N-(2-(4-benzylpiperidin-1-yl)ethyl)-1H-indol-3-carboxamide], in that order: 88.39%, 57.01% and 33.58%.
In the case of `Cn1c(C(=O)NCCN2CCC(Cc3ccccc3)CC2)cc2ccccc21` [Example 74, N-(2-(4-benzylpiperidin-1-yl)ethyl)-1-methyl-1H-indol-2-carboxamide], the “Triple reuptake inhibition (Ratio %) SERT” value on serotonin transporter amounted to 67.26%. For the same compound, the half-inhibitory concentration (IC50) on serotonin transporter (setting [2]) was determined as 3.41 µM; in assay [1] (setting [3]), 0.337 µM; on dopamine transporter (setting [4]), 0.509 µM. The “Triple reuptake inhibition (Ratio %) NET” value in assay [1] is reported as 28.47%. Moreover, the “Triple reuptake inhibition (Ratio %) DAT” value at dopamine transporter came out at 39.87%.
Consider `O=C(NCCN1CCC(Cc2ccccc2)CC1)c1ccc[nH]1` [Example 75, N-(2-(4-benzylpiperidin-1-yl)ethyl)-1H-pyrrol-2-carboxamide], for which the “Triple reuptake inhibition (Ratio %) SERT” value on serotonin transporter was 98.97%. In addition, the “Triple reuptake inhibition (Ratio %) NET” value in assay [1] was found to be 67.08%. Moreover, on dopamine transporter, the “Triple reuptake inhibition (Ratio %) DAT” value was 83.55%.
Consider `O=C(CCN1CCC(Cc2ccccc2)CC1)Nc1cc2ccccc2[nH]1` [Example 76, 3-(4-benzylpiperidin-1-yl)-N-(1H-indol-2-yl)propanamide], for which, at serotonin transporter, the IC50 stood at 0.811 µM and the “Triple reuptake inhibition (Ratio %) SERT” value came out at 68.60%. Besides, in assay [1], 0.496 µM corresponded to half-maximal inhibition (IC50) and the “Triple reuptake inhibition (Ratio %) NET” value is listed as 32.60%. In addition, at dopamine transporter, the half-inhibitory concentration (IC50) was 0.278 µM and the “Triple reuptake inhibition (Ratio %) DAT” value was 36.87%.
Consider `O=C(CCC(=O)N1CCC(Cc2ccccc2)CC1)Nc1cc2ccccc2[nH]1` [Example 77, 4-(4-benzylpiperidin-1-yl)-N-(1H-indol-2-yl)-4-oxobutanamide], for which the “Triple reuptake inhibition (Ratio %) SERT” value at serotonin transporter was 98.61%. In addition, the “Triple reuptake inhibition (Ratio %) NET” value in assay [1] was found to be 91.05%. The “Triple reuptake inhibition (Ratio %) DAT” value on dopamine transporter is reported as 111.32%.
Take `O=C(O)c1ccc2[nH]c(C(=O)NCCN3CCC(Cc4ccccc4)CC3)cc2c1` [Example 81, 2-((2-(4-benzylpiperidin-1-yl)-ethyl)carbamoyl)-1H-indol-5-carboxylic acid]: at serotonin transporter, the “Triple reuptake inhibition (Ratio %) SERT” value is on record as 87.86%. In assay [1], the “Triple reuptake inhibition (Ratio %) NET” value was 95.95%. The “Triple reuptake inhibition (Ratio %) DAT” value on dopamine transporter turned out to be 70.22%.
For `NC(=O)c1ccc2[nH]c(C(=O)NCCN3CCC(Cc4ccccc4)CC3)cc2c1` [Example 82, N2-(2-(4-benzylpiperidin-1-yl)ethyl)-1H-indol-2,5-dicarboxamide], in that order: 41.20%, 37.73% and 47.70%.

These data come from patent US20240018119A1, “CARBOXAMIDE DERIVATIVE AND PHARMACEUTICAL COMPOSITION COMPRISING SAME AS ACTIVE INGREDIENT FOR PREVENTING OR TREATING MENTAL ILLNESS” (DAEGU-GYEONGBUK MEDICAL INNOVATION FOUNDATION, priority 2020, published 2024).
